According to PubChem BioAssay AID1963973 (Molecular Pharmacology Branch, DTP, NCI, 2024):

Test system: 883617-216-R-J1-PDC tumor spheroids, viability
Experiment: Anticancer human tumor 883617-216-R-J1-PDC patient-derived bladder carcinoma cell line growth inhibition [PI3K]
Details: spheroids with HUVEC and MSC; for IC50: curve of first compound; for viability, T/C: stronger effect = lower value; active = viability on the fitted dose curve at most 10% of control; inactive = the rest
Description: Combinatorial screen of targeted agents with the PI3K inhibitors inavolisib, alpelisib, duvelisib, and copanlisib in multi-cell type tumor spheroids
A high-throughput screen of multi-cell type tumor spheroids was designed to identify active combinations of targeted small molecules and PI3K pathway inhibitors. Complex spheroids include a stromal component modeled by human endothelial cells (HUVEC) and fibroblasts modeled by human mesenchymal stem cells (MSCs). The concentration ranges selected for each drug and investigational agent were based upon clinically achievable concentrations if the clinical Cmax of the agent was known.
Compounds. The drugs and investigational agents: inavolisib (NSC800729), alpelisib (NSC765974), duvelisib (NSC772469), copanlisib (NSC816437), ipatasertib (NSC767898), afuresertib (NSC778305), talazoparib (NSC767125), sapanisertib (NSC764658), selumetinib (NSC741078), tovorafenib (DAY101, NSC766906), vemurafenib (NSC761431), ravoxertinib (NSC781343), sotorasib (NSC818433), MRTX1133 (NSC 836407), abemaciclib (NSC 768073), palbociclib (NSC758247), venetoclax (NSC 766270), SY5609 (NSC837396), enzalutamide (NSC755605), and darolutamide (NSC825331), were obtained from the National Cancer Institute (NCI) Developmental Therapeutics Program Chemical Repository. The FDA-approved anticancer drug set is available from the NCI Developmental Therapeutics Program. […] The stock solutions were prepared in dimethyl sulfoxide (DMSO, Sigma-Aldrich, St. Louis, MO, cat. D2650) at 800-fold the tested concentration and stored at -70 degrees C prior to their use. All drugs and investigational agents were tested over a range starting from a high concentration at or near the clinical Cmax and decreasing in half-log increments. If the clinical Cmax for an agent had not been determined, the highest concentration tested was 10 microM.
Cell Culture. All cells were maintained in an incubator at 37 degrees C and 5% CO2 with 95% humidity. The PDC lines were cultured according to standard operating procedures established by the NCI PDMR (https://pdmr.cancer.gov/sops/default.htm). All PDCs were thawed and cultured in Matrigel-coated flasks prepared with a working solution of 1X Ham's F-12 nutrient mix, without supplementation (Invitrogen, Waltham, MA, cat. 11765054), 100 U/mL penicillin-streptomycin (Invitrogen, cat. 15140122), and 2.5% Matrigel (Corning Inc., Corning, NY, cat. 354248) for the first three passages. The 354836-022-R-J1-PDC, 475296-252-R-J1-PDC, and 997726-040-R-J2-PDC lines were cultured in 6A media, which includes advanced DMEM/F-12 (Thermo Fisher Scientific, cat. 12634028), 10 mM HEPES (Thermo Fisher Scientific, cat. 15630080), 1X GlutaMAX supplement (Thermo Fisher Scientific, cat. 35050061), 0.1 mg/mL primocin (InvivoGen, San Diego, CA, cat. ant-pm-2), 10% defined fetal bovine serum, heat inactivated (HyClone Laboratories Inc., Logan, UT, cat. SH30070.03HI), 50% L-WRN conditioned media (ATCC, cat. CRL-3276), 1.25 mM N-Acetyl-L-cysteine (Sigma-Aldrich, cat. A9165), 10 mM nicotinamide (Sigma-Aldrich, cat. N0636), 1X B-27 supplement (Thermo Fisher Scientific, cat. 17504044), 1X N-2 supplement (Thermo Fisher Scientific, cat. 17502048), and 10 microM Y-27632 dihydrochloride (Tocris Bioscience, Bristol, United Kingdom, cat. 1254). The 624824-186-R-J2-PDC line was cultured in 6C/Colon 1B media, which includes all 6A media components plus 50 ng/mL human EGF recombinant protein (Thermo Fisher Scientific, cat. PHG0311). […]

[1] = second compound 0.00316 µM, first compound 0.0316 µM
[2] = second compound 0.00316 µM, first compound 0.1 µM
[3] = second compound 0.00316 µM, first compound 0.316 µM
[4] = second compound 0.00316 µM, first compound 1 µM
[5] = second compound 0.00316 µM, first compound 3.16 µM
[6] = second compound 0.00316 µM, first compound 10 µM
[7] = second compound 0.01 µM, first compound 0.0316 µM
[8] = second compound 0.01 µM, first compound 0.1 µM
[9] = second compound 0.01 µM, first compound 0.316 µM
[10] = second compound 0.01 µM, first compound 1 µM
[11] = second compound 0.01 µM, first compound 3.16 µM
[12] = second compound 0.01 µM, first compound 10 µM
[13] = second compound 0.0316 µM, first compound 0.0316 µM
[14] = second compound 0.0316 µM, first compound 0.1 µM
[15] = second compound 0.0316 µM, first compound 0.316 µM
[16] = second compound 0.0316 µM, first compound 1 µM
[17] = second compound 0.0316 µM, first compound 3.16 µM
[18] = second compound 0.0316 µM, first compound 10 µM
[19] = second compound 0.1 µM, first compound 0.0316 µM
[20] = second compound 0.1 µM, first compound 0.1 µM
[21] = second compound 0.1 µM, first compound 0.316 µM
[22] = second compound 0.1 µM, first compound 1 µM
[23] = second compound 0.1 µM, first compound 3.16 µM
[24] = second compound 0.1 µM, first compound 10 µM
[25] = second compound 0.316 µM, first compound 0.0316 µM
[26] = second compound 0.316 µM, first compound 0.1 µM
[27] = second compound 0.316 µM, first compound 0.316 µM
[28] = second compound 0.316 µM, first compound 1 µM
[29] = second compound 0.316 µM, first compound 3.16 µM
[30] = second compound 0.316 µM, first compound 10 µM
[31] = second compound 1 µM, first compound 0.0316 µM
[32] = second compound 1 µM, first compound 0.1 µM
[33] = second compound 1 µM, first compound 0.316 µM
[34] = second compound 1 µM, first compound 1 µM
[35] = second compound 1 µM, first compound 3.16 µM
[36] = second compound 1 µM, first compound 10 µM
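Note: spheroids exposed to agents for 7 days before the viability read.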

C=CC(=O)N1CCN(c2nc(=O)n(-c3c(C)ccnc3C(C)C)c3nc(-c4c(O)cccc4F)c(F)cc23)C(C)C1 (centres undefined) + CC(Nc1ccc2c(c1)OCCn1cc(N3C(=O)OCC3C(F)F)nc1-2)C(N)=O
inactive: viability, T/C [1] 59% | viability, T/C [2] 49.2% | viability, T/C [3] 52.5% | viability, T/C [4] 70.5% | viability, T/C [5] 70.8% | viability, T/C [6] 56.5% | viability, T/C [7] 57.8% | viability, T/C [8] 51.8% | viability, T/C [9] 47.7% | viability, T/C [10] 44.5% | viability, T/C [11] 56.5% | viability, T/C [12] 61.1% | viability, T/C [13] 45% | viability, T/C [14] 38.2% | viability, T/C [15] 30.8% | viability, T/C [16] 40.9% | viability, T/C [17] 42.6% | viability, T/C [18] 49.7% | viability, T/C [19] 25.3% | viability, T/C [20] 21.6% | viability, T/C [21] 19.3% | viability, T/C [22] 25.7% | viability, T/C [23] 30.4% | viability, T/C [24] 25.3% | viability, T/C [25] 13.5% | viability, T/C [26] 13.4% | viability, T/C [27] 11% | viability, T/C [28] 14.6% | viability, T/C [29] 15.5% | viability, T/C [30] 17.3% | viability, T/C [31] 10.3%
31.6 nM: IC50 (second compound 0.01 µM)
active: viability, T/C [32] 9.98% | viability, T/C [33] 7.7% | viability, T/C [34] 7.88% | viability, T/C [35] 12.1% | viability, T/C [36] 9.67%
> 10000 nM: IC50 (second compound 0.00316 µM)
< 31.6 nM: IC50 (second compound 0.0316 µM) | IC50 (second compound 0.1 µM) | IC50 (second compound 0.316 µM) | IC50 (second compound 1 µM)

C#Cc1c(F)ccc2cc(O)cc(-c3ncc4c(N5CC6CCC(C5)N6)nc(OCC56CCCN5CC(F)C6)nc4c3F)c12 (centres undefined) + CC(Nc1ccc2c(c1)OCCn1cc(N3C(=O)OCC3C(F)F)nc1-2)C(N)=O
> 10000 nM: IC50 (second compound 0.00316 µM) | IC50 (second compound 0.01 µM)
< 31.6 nM: IC50 (second compound 0.1 µM) | IC50 (second compound 0.316 µM) | IC50 (second compound 1 µM)
inactive: viability, T/C [1] 85.3% | viability, T/C [2] 89.7% | viability, T/C [3] 84.8% | viability, T/C [4] 91.2% | viability, T/C [5] 79.6% | viability, T/C [6] 54.8% | viability, T/C [7] 87.9% | viability, T/C [8] 88.4% | viability, T/C [9] 88.3% | viability, T/C [10] 85% | viability, T/C [11] 74.3% | viability, T/C [12] 53.2% | viability, T/C [13] 79.9% | viability, T/C [14] 75.3% | viability, T/C [15] 64.9% | viability, T/C [16] 88.5% | viability, T/C [17] 62.4% | viability, T/C [18] 40.2% | viability, T/C [19] 41.1% | viability, T/C [20] 39.7% | viability, T/C [21] 42.7% | viability, T/C [22] 39.6% | viability, T/C [23] 31% | viability, T/C [24] 21% | viability, T/C [25] 27.6% | viability, T/C [26] 21.4% | viability, T/C [27] 21.4% | viability, T/C [28] 24.6% | viability, T/C [29] 16.7% | viability, T/C [30] 16.8% | viability, T/C [31] 13.4% | viability, T/C [32] 16.9% | viability, T/C [33] 17.1% | viability, T/C [34] 12.8% | viability, T/C [35] 14.2% | viability, T/C [36] 8%
6510 nM: IC50 (second compound 0.0316 µM)
